Activity calls are given as the source filed them. No cut-off for these calls is given here.
How the values were obtained:
HT-29 [1] = assay: Antiproliferative activity against human HT-29 cells assessed as inhibition of cell viability at 10 uM by trypan blue assay; format: functional, cell-based; settings: TDE = time-dependent effect
HT-29 [2] = assay: Inhibition of carbonic anhydrase 2 expression in human HT-29 cells at 2.5 to 10 uM after 18 hrs by Western blot analysis; format: functional, cell-based
HT-29 [3] = assay: Antiproliferative activity against human HT-29 cells assessed as cell viability at 10 uM after 24 hrs by trypan blue assay; format: functional; settings: HT-29, 24 h, read-out: Activity
HT-29 [4] = assay: Inhibition of carbonic anhydrase 1 expression in human HT-29 cells at 2.5 to 10 uM after 18 hrs by Western blot analysis; format: functional, cell-based
HT-29 [5] = assay: Antiproliferative activity against human HT-29 cells assessed as inhibition of cell viability after 24 hrs by trypan blue assay; format: functional, cell-based
HT-29 [6] = assay: Inhibition of carbonic anhydrase 9 expression in human HT-29 cells after 18 hrs by Western blot analysis; format: functional, cell-based
HT-29 [7] = assay: Inhibition of carbonic anhydrase 12 expression in human HT-29 cells after 18 hrs by Western blot analysis; format: functional, cell-based
SW-620 = assay: Antiproliferative activity against human SW620 cells assessed as inhibition of cell viability at 5 to 10 uM after 24 hrs by trypan blue assay; format: functional, cell-based

SMILES: NS(=O)(=O)c1ccc(Nc2nc(-c3ccc(Cl)cc3)nc3ccccc23)cc1
- inhibition (HT-29 [1]): tde
- inhibition (HT-29 [2]): inactive
- viability at 10 µM (HT-29 [3]): 12%
- inhibition (HT-29 [4]): inactive
- inhibition (HT-29 [5]): Dose-dependent effect
- IC50 (HT-29 [5]; HT-29, 24 h): 5.45 µM
- inhibition (HT-29 [6]): Dose-dependent effect
- inhibition (HT-29 [7]): Dose-dependent effect
- inhibition (SW-620): Active

From ChEMBL document CHEMBL3758155, “Development of certain new 2-substituted-quinazolin-4-yl-aminobenzenesulfonamide as potential antitumor agents” (Eur J Med Chem, 2016)
